Measured values from US20260272895A1, “METHODS AND KITS FOR DELIVERY OF COMPOUNDS INTO CELLS” (Yale University, priority 2023, published 2026).

Test system: brain cell types
Test: In vivo two-photon imaging of mouse cortex after topical cortical administration of fluorophores
Settings: for Target: cell type taking up the compound in vivo (Table 1); for in vivo endothelial labeling/uptake: two-photon images of mouse cortex, route and concentration not stated; for endothelial cell labeling/uptake after topical application to the brain: topical cortical application
Description: Briefly, animals are anaesthetized via intraperitoneal injections of ketamine/xylazine or via inhaled isoflurane. A region of the skull (3×3 mm) is gently removed with a high-speed drill and the underlying dura is removed. A small glass coverslip is placed over the skull to allow long term optical access for in vivo imaging. Labeling with fluorescent dyes is performed either via intravenous injections or topically application to the cortical surface for 20 min prior to glass cover placement. After recovery, in vivo images are acquired using a two-photon microscope (Bruker Technologies) equipped with a multimodal (fixed wavelength 1040 nm and tunable wavelength) InSight X3 two-photon laser (Spectra Physics) and 20× water immersion objective (Zeiss 1.0N.A.). The two-photon laser is appropriately tuned to excite particular fluorescent dyes and proteins as needed. In selected cases, following in vivo imaging, mice will be sacrificed and perfused for follow up immunohistochemistry and high-resolution confocal imaging (Leica SP8) to further confirm colocalization of dyes and cells expressing particular transporters.
One-month-old wild-type mice were anesthetized using a ketamine/xylazine solution at doses of 100 mg/kg and 10 mg/kg, respectively. The fur around the skull area was shaved, and buprenex (0.1 mg per kg) and carprofen (5 mg per kg) were administered subcutaneously. Mice were kept on a heating pad at 37° C., and anesthesia was periodically monitored. The skin was treated with povidone-iodine solution, followed by cleaning with ethanol, and eye ointment was applied. A small skin section was excised to expose the skull. Thinning of the skull was performed in a circular area, followed by delicately lifting of the remaining skull without harm to the underlying brain. Within the circular region, the dura was gently removed using fine forceps, and a 4 mm cover glass was softly pressed onto the brain surface and affixed to the skull. Fluorescent dyes were applied either through intravenous injections or topically to the cortical surface for 20 minutes before placing the glass cover. A customized head bar was attached either by adhesive (for acute imaging) or permanently implanted (using dental cement, for chronic imaging) onto the skull. Mice were imaged under a two-photon microscope (Prairie Technologies) with a mode-locked MaiTai tunable laser (Spectra Physics). Imaging was performed with a 20× water immersion objective (Zeiss, 1.0NA). Images were captured at depths up to 300 μm from the pial surface using excitation wavelengths ranging from 750 to 950 nm as previously described. Mice undergoing chronic imaging received a recovery period on a heating pad post-surgery, and buprenex (0.1 mg per kg) and carprofen (5 mg per kg) were administered for 3 days.
Batches of 10 compounds were applied through the craniotomy to the cortical surface before placing a cover glass window. No additional washings were performed, and the cover glass was placed, allowing up to 3 hours of imaging of the cortical surface with a two-photon microscope. Following imaging, the data were analyzed to identify potential patterns of cell-specific labeling. […] Positive batches underwent three additional rounds of imaging, with each batch being sequentially split, until a single compound displaying cell-type-specific labeling was identified. As these compounds were not initially purified, the labeling may have resulted from fluorescent byproducts of synthesis. Consequently, large-scale synthesis, purification and characterization (FIGS. 29A-29D) of the identified compounds were conducted. The purified compounds were subsequently retested using in vivo imaging to confirm cell type specificity.
It was reasoned that the best strategy to identify fluorophores with specific affinity to certain cell types and transport mechanisms would be by direct screening in the intact in vivo brain microenvironment. […]

SMILES | Target | in vivo endothelial labeling/uptake | endothelial cell labeling/uptake after topical application to the brain
O=S(=O)([O-])c1cc(S(=O)(=O)O)ccc1C1=c2cc3c4c(c2Oc2cc(F)c(Br)cc21)CCC[N+]=4CCC3 [Compound 10, 2-(11-bromo-12-fluoro-1,2,3,5,6,7-hexahydrochromeno[2,3-f]pyrido[3,2,1-ij]quinolin-4-ium-9-yl)-5-sulfobenzenesulfonate] | Endothelial | – | –
O=S(=O)([O-])c1cc(S(=O)(=O)O)ccc1-c1c2ccc(Br)cc2[o+]c2ccc(-n3cncn3)cc12 [Compound 33, 2-(6-bromo-2-(1H-1,2,4-triazol-1-yl)xanthylium-9-yl)-5-sulfobenzenesulfonate] | Endothelial | – | –
O=S(=O)([O-])c1cc(S(=O)(=O)O)ccc1C1=c2cc3c4c(c2Oc2c1cc1ccccc1c2Br)CCC[N+]=4CCC3 [Compound 45, 2-(15-bromo-1,2,3,5,6,7-hexahydrobenzo[6,7]chromeno[2,3-f]pyrido[3,2,1-ij]quinolin-4-ium-9-yl)-5-sulfobenzenesulfonate] | Endothelial | – | –
CCN(CC)c1ccc2c(-c3ccc(S(=O)(=O)NCCOCCOCCOCCOCCOCCOCCOCCOCCOCCOCCOCCOCCOCCOCCOCCOCCOCCOCCOCCOCCOCCOC)cc3S(=O)(=O)[O-])c3ccc(N(CC)CC)cc3[o+]c2c1 [Compound 56] | – | highly specific in vivo endothelial labeling | –
O=S(=O)([O-])c1cc(S(=O)(=O)O)ccc1C1=c2cc3c4c(c2Oc2cc(Cl)c(Cl)cc21)CCC[N+]=4CCC3 [Compound 12, 2-(11,12-dichloro-1,2,3,5,6,7-hexahydrochromeno[2,3-f]pyrido[3,2,1-ij]quinolin-4-ium-9-yl)-5-sulfobenzenesulfonate] | Endothelial | – | –
CN(C)c1ccc2c(-c3ccc(S(=O)(=O)NCCNC(=O)OC(C)(C)C)cc3S(=O)(=O)[O-])c3ccc(N(C)C)cc3[o+]c2c1 [Compound 55, 2-(3,6-bis(dimethylamino)xanthylium-9-yl)-5-(N-(2-((tert-butoxycarbonyl)amino)ethyl)sulfamoyl)benzenesulfonate] | – | robust endothelial cell body uptake | –
O=S(=O)([O-])c1cc(S(=O)(=O)O)ccc1-c1c2ccc(Br)cc2[o+]c2ccc(-n3ccnc3)cc12 [Compound 31, 2-(6-bromo-2-(1H-imidazol-1-yl)xanthylium-9-yl)-5-sulfobenzenesulfonate] | Endothelial | – | –
O=[N+]([O-])c1ccc2c(-c3ccc(S(=O)(=O)O)cc3S(=O)(=O)[O-])c3ccc(Br)cc3[o+]c2c1 [Compound 28, 2-(3-bromo-6-nitroxanthylium-9-yl)-5-sulfobenzenesulfonate] | Endothelial | – | –
O=S(=O)([O-])c1cc(S(=O)(=O)O)ccc1C1=c2cc3c4c(c2Oc2c1ccc(Br)c2F)CCC[N+]=4CCC3 [Compound 21, 2-(12-bromo-13-fluoro-1,2,3,5,6,7-hexahydrochromeno[2,3-f]pyrido[3,2,1-ij]quinolin-4-ium-9-yl)-5-sulfobenzenesulfonate] | Endothelial | – | –
O=S(=O)([O-])c1cc(S(=O)(=O)O)ccc1C1=c2cc3c4c(c2Oc2c1ccc(Cl)c2F)CCC[N+]=4CCC3 [Compound 20, 2-(12-chloro-13-fluoro-1,2,3,5,6,7-hexahydrochromeno[2,3-f]pyrido[3,2,1-ij]quinolin-4-ium-9-yl)-5-sulfobenzenesulfonate] | Endothelial | – | –
O=S(=O)([O-])c1cc(S(=O)(=O)O)ccc1C1=c2cc3c4c(c2Oc2cc(F)ccc21)CCC[N+]=4CCC3 [Compound 2, 2-(12-fluoro-1,2,3,5,6,7-hexahydrochromeno[2,3-f]pyrido[3,2,1-ij]quinolin-4-ium-9-yl)-5-sulfobenzenesulfonate] | Endothelial | – | selectively labeling endothelial cells in vivo
CN(C)c1ccc2c(-c3ccc(S(=O)(=O)O)cc3S(=O)(=O)[O-])c3ccc(Br)cc3[o+]c2c1 [Compound 42, 2-(3-bromo-6-(dimethylamino)xanthylium-9-yl)-5-sulfobenzenesulfonate] | Endothelial | – | –
O=S(=O)([O-])c1cc(S(=O)(=O)O)ccc1C1=c2cc3c4c(c2Oc2cc(I)ccc21)CCC[N+]=4CCC3 [Compound 4, 2-(12-iodo-1,2,3,5,6,7-hexahydrochromeno[2,3-f]pyrido[3,2,1-ij]quinolin-4-ium-9-yl)-5-sulfobenzenesulfonate] | Endothelial | – | selectively labeling endothelial cells in vivo
O=S(=O)([O-])c1cc(S(=O)(=O)O)ccc1-c1c2ccc(Br)cc2[o+]c2ccc(S(=O)(=O)O)cc12 [Compound 32, 2-(6-bromo-2-sulfoxanthylium-9-yl)-5-sulfobenzenesulfonate] | Endothelial | – | –
O=S(=O)([O-])c1cc(S(=O)(=O)O)ccc1C1=c2cc3c4c(c2Oc2cc(Br)c(Cl)cc21)CCC[N+]=4CCC3 [Compound 15, 2-(12-bromo-11-chloro-1,2,3,5,6,7-hexahydrochromeno[2,3-f]pyrido[3,2,1-ij]quinolin-4-ium-9-yl)-5-sulfobenzenesulfonate] | Endothelial | – | –
O=S(=O)([O-])c1cc(S(=O)(=O)O)ccc1C1=c2cc3c4c(c2Oc2ccc(Br)cc21)CCC[N+]=4CCC3 [Compound 6, 2-(11-bromo-1,2,3,5,6,7-hexahydrochromeno[2,3-f]pyrido[3,2,1-ij]quinolin-4-ium-9-yl)-5-sulfobenzenesulfonate] | Endothelial | – | –
O=S(=O)([O-])c1cc(S(=O)(=O)O)ccc1C1=c2cc3c4c(c2Oc2c1ccc(F)c2F)CCC[N+]=4CCC3 [Compound 19, 2-(12,13-difluoro-1,2,3,5,6,7-hexahydrochromeno[2,3-f]pyrido[3,2,1-ij]quinolin-4-ium-9-yl)-5-sulfobenzenesulfonate] | Endothelial | – | –
O=S(=O)([O-])c1cc(S(=O)(=O)O)ccc1C1=c2cc3c4c(c2Oc2cc(Br)c(F)cc21)CCC[N+]=4CCC3 [Compound 14, 2-(12-bromo-11-fluoro-1,2,3,5,6,7-hexahydrochromeno[2,3-f]pyrido[3,2,1-ij]quinolin-4-ium-9-yl)-5-sulfobenzenesulfonate] | Endothelial | – | –
O=S(=O)([O-])c1cc(S(=O)(=O)O)ccc1C1=c2cc3c4c(c2Oc2c(Br)cc(Br)cc21)CCC[N+]=4CCC3 [Compound 7, 2-(11,13-dibromo-1,2,3,5,6,7-hexahydrochromeno[2,3-f]pyrido[3,2,1-ij]quinolin-4-ium-9-yl)-5-sulfobenzenesulfonate] | Endothelial | – | –
CN(C)c1ccc2c(-c3ccc(S(=O)(=O)O)cc3S(=O)(=O)[O-])c3cc(Br)ccc3[o+]c2c1 [Compound 38, 2-(2-bromo-6-(dimethylamino)xanthylium-9-yl)-5-sulfobenzenesulfonate] | Astrocyte | – | –
O=S(=O)([O-])c1cc(S(=O)(=O)O)ccc1C1=c2cc3c4c(c2Oc2c1ccc(Cl)c2Cl)CCC[N+]=4CCC3 [Compound 23, 2-(12,13-dichloro-1,2,3,5,6,7-hexahydrochromeno[2,3-f]pyrido[3,2,1-ij]quinolin-4-ium-9-yl)-5-sulfobenzenesulfonate] | Endothelial | – | –
O=[N+]([O-])c1ccc2c(c1)Oc1c3c4c(cc1=C2c1ccc(S(=O)(=O)O)cc1S(=O)(=O)[O-])CCC[N+]=4CCC3 [Compound 35, 2-(12-nitro-1,2,3,5,6,7-hexahydrochromeno[2,3-f]pyrido[3,2,1-ij]quinolin-4-ium-9-yl)-5-sulfobenzenesulfonate] | Astrocyte | – | –
